For 13 compounds, EC50 results are on record in patent US20240043404A1 (AbbVie Inc., priority 2009, published 2024).

The test system of the first assay is RS4;11 cells. Description: RS4;11 cell viability assay (CellTiter Glo).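 Note: acute lymphoblastic leukemia line RS4,11, EC50 derived from percentage of viable cells after treatment relative to untreated controls, cell killing taken as a measure of Bcl-2 inhibition.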 In kind it is cell-based, human. The following applies: Homo sapiens, RS4-11, 48 h, 50,000 cells per well, 10% human serum, 48 hours; read-out: RS4; 11 EC50 Values. (In general: ATP-based viability assays read luminescence as a measure of living cells.)
Description: The acute lymphoblastic leukemia (ALL) cell line RS4;11 was used as the primary human cell line to assess the cellular activity of Bcl-2 selective agents in vitro and their efficacy in vivo.
Cell cytotoxicity EC50 values were assessed using CellTiter Glo (Promega) according to the manufacturer's recommendations. The EC50 values were determined as a percentage of viable cells following treatment compared to the untreated control cells.
As for `CC1(C)CCC(CN2CCN(c3ccc(C(=O)NS(=O)(=O)c4cnc(OC[C@@H]5CCN(CC(F)F)C5)c(Cl)c4)c(Oc4cnc5[nH]ccc5c4)c3)CC2)=C(c2ccc(Cl)cc2)C1` [Example 281, N-[(5-chloro-6-{[(3R)-1-(2,2-difluoroethyl)pyrrolidin-3-yl]methoxy}pyridin-3-yl)sulfonyl]-4-(4-{[2-(4-chlorophenyl)-4,4-dimethylcyclohex-1-en-1-yl]methyl}piperazin-1-yl)-2-(1H-pyrrolo[2,3-b]pyridin-5-yloxy)benzamide], the EC50 is 654 nM. For `CC1(C)CCC(CN2CCN(c3ccc(C(=O)NS(=O)(=O)c4ccc(OCC5CCOC(C)(C)C5)c([N+](=O)[O-])c4)c(Oc4cnc5[nH]ccc5c4)c3)CC2)=C(c2ccc(Cl)cc2)C1` (centres unmarked) [Example 51, 4-(4-{[2-(4-chlorophenyl)-4,4-dimethylcyclohex-1-en-1-yl]methyl}piperazin-1-yl)-N-({4-[(2,2-dimethyltetrahydro-2H-pyran-4-yl)methoxy]-3-nitrophenyl}sulfonyl)-2-(1H-pyrrolo[2,3-b]pyridin-5-yloxy)benzamide], the EC50 is 23.1 nM.

Take `CC1(C)CCC(CN2CCN(c3ccc(C(=O)NS(=O)(=O)c4ccc(NC[C@@H]5CC[C@H](O)C5)c([N+](=O)[O-])c4)c(Oc4cnc5[nH]ccc5c4)c3)CC2)=C(c2ccc(Cl)cc2)C1` [Example 159, 4-(4-{[2-(4-chlorophenyl)-4,4-dimethylcyclohex-1-en-1-yl]methyl}piperazin-1-yl)-N-{[4-({[(1R,3S)-3-hydroxycyclopentyl]methyl}amino)-3-nitrophenyl]sulfonyl}-2-(1H-pyrrolo[2,3-b]pyridin-5-yloxy)benzamide]: the EC50 is 11.8 nM. The same measure, in the same setting: next, `CC1(C)CCC(CN2CCN(c3ccc(C(=O)NS(=O)(=O)c4ccc(NCCCN5CCCC5)c([N+](=O)[O-])c4)c(Oc4cccc5[nH]c6ccccc6c45)c3)CC2)=C(c2ccc(Cl)cc2)C1` [Example 8, 2-(9H-carbazol-4-yloxy)-4-(4-{[2-(4-chlorophenyl)-4,4-dimethylcyclohex-1-en-1-yl]methyl}piperazin-1-yl)-N-({3-nitro-4-[(3-pyrrolidin-1-ylpropyl)amino]phenyl}sulfonyl)benzamide]: 158 nM; `CC1(C)CCC(CN2CCN(c3ccc(C(=O)NS(=O)(=O)c4ccc(N5CCC(N6CCOCC6)CC5)c([N+](=O)[O-])c4)c(Oc4cnc5[nH]ccc5c4)c3)CC2)=C(c2ccc(Cl)cc2)C1` [Example 223, 4-(4-{[2-(4-chlorophenyl)-4,4-dimethylcyclohex-1-en-1-yl]methyl}piperazin-1-yl)-N-({4-[4-(morpholin-4-yl)piperidin-1-yl]-3-nitrophenyl}sulfonyl)-2-(1H-pyrrolo[2,3-b]pyridin-5-yloxy)benzamide]: 182 nM; `CC1(C)CCC(CN2CCN(c3ccc(C(=O)NS(=O)(=O)c4ccc(NC5CCN(C6CCC6)CC5)c([N+](=O)[O-])c4)c(Oc4cnc5[nH]ccc5c4)c3)CC2)=C(c2ccc(Cl)cc2)C1` [Example 140, 4-(4-{[2-(4-chlorophenyl)-4,4-dimethylcyclohex-1-en-1-yl]methyl}piperazin-1-yl)-N-({4-[(1-cyclobutylpiperidin-4-yl)amino]-3-nitrophenyl}sulfonyl)-2-(1H-pyrrolo[2,3-b]pyridin-5-yloxy)benzamide]: 12.8 nM. For `CN1CCC(F)(COc2ccc(S(=O)(=O)NC(=O)c3ccc(N4CCN(CC5=C(c6ccc(Cl)cc6)CC(C)(C)CC5)CC4)cc3Oc3cnc4[nH]ccc4c3)cc2S(=O)(=O)C(F)(F)F)CC1` [Example 230, 4-(4-{[2-(4-chlorophenyl)-4,4-dimethylcyclohex-1-en-1-yl]methyl}piperazin-1-yl)-N-({4-[(4-fluoro-1-methylpiperidin-4-yl)methoxy]-3-[(trifluoromethyl)sulfonyl]phenyl}sulfonyl)-2-(1H-pyrrolo[2,3-b]pyridin-5-yloxy)benzamide], the EC50 was found to be 52.8 nM. Turning to `CC1(C)CCC(CN2CCN(c3ccc(C(=O)NS(=O)(=O)c4ccc(N[C@H]5CCN(C6CCOC(C)(C)C6)C5)c([N+](=O)[O-])c4)c(Oc4cnc5[nH]ccc5c4)c3)CC2)=C(c2ccc(Cl)cc2)C1` (stereo partly drawn) [Example 133, 4-(4-{[2-(4-chlorophenyl)-4,4-dimethylcyclohex-1-en-1-yl]methyl}piperazin-1-yl)-N-[(4-{[(3S)-1-(2,2-dimethyltetrahydro-2H-pyran-4-yl)pyrrolidin-3-yl]amino}-3-nitrophenyl)sulfonyl]-2-(1H-pyrrolo[2,3-b]pyridin-5-yloxy)benzamide], the EC50 worked out at 31.9 nM. Consider `CC1(C)CCC(CN2CCN(c3ccc(C(=O)NS(=O)(=O)c4cc(F)c(NCC5CCOCC5)cc4Cl)c(Oc4cnc5[nH]ccc5c4)c3)CC2)=C(c2ccc(Cl)cc2)C1` [Example 54, N-({2-chloro-5-fluoro-4-[(tetrahydro-2H-pyran-4-ylmethyl)amino]phenyl}sulfonyl)-4-(4-{[2-(4-chlorophenyl)-4,4-dimethylcyclohex-1-en-1-yl]methyl}piperazin-1-yl)-2-(1H-pyrrolo[2,3-b]pyridin-5-yloxy)benzamide], for which the EC50 is 1920 nM. For the compound `CC1(C)CCC(CN2CCN(c3ccc(C(=O)NS(=O)(=O)c4cnc(OCC(C)(CO)CO)c(Cl)c4)c(Oc4cnc5[nH]ccc5c4)c3)CC2)=C(c2ccc(Cl)cc2)C1` [Example 250, N-({5-chloro-6-[3-hydroxy-2-(hydroxymethyl)-2-methylpropoxy]pyridin-3-yl}sulfonyl)-4-(4-{[2-(4-chlorophenyl)-4,4-dimethylcyclohex-1-en-1-yl]methyl}piperazin-1-yl)-2-(1H-pyrrolo[2,3-b]pyridin-5-yloxy)benzamide], the EC50 was above 1000 nM. Same read-out and setting: next, `COCCN1CCCC(CNc2ccc(S(=O)(=O)NC(=O)c3ccc(N4CCN(CC5=C(c6ccc(Cl)cc6)CC(C)(C)CC5)CC4)cc3Oc3cnc4[nH]ccc4c3)cc2[N+](=O)[O-])C1` (centres unmarked) [Example 228, 4-(4-{[2-(4-chlorophenyl)-4,4-dimethylcyclohex-1-en-1-yl]methyl}piperazin-1-yl)-N-{[4-({[1-(2-methoxyethyl)piperidin-3-yl]methyl}amino)-3-nitrophenyl]sulfonyl}-2-(1H-pyrrolo[2,3-b]pyridin-5-yloxy)benzamide]: above 1000 nM. `COc1cccc(CNc2ccc(S(=O)(=O)NC(=O)c3ccc(N4CCN(CC5=C(c6ccc(Cl)cc6)CC(C)(C)CC5)CC4)cc3Oc3cnc4[nH]ccc4c3)cc2[N+](=O)[O-])c1` [Example 176, 4-(4-{[2-(4-chlorophenyl)-4,4-dimethylcyclohex-1-en-1-yl]methyl}piperazin-1-yl)-N-({4-[(3-methoxybenzyl)amino]-3-nitrophenyl}sulfonyl)-2-(1H-pyrrolo[2,3-b]pyridin-5-yloxy)benzamide]: the EC50 came to 134 nM. Same read-out and setting: next, `CC1(C)CCC(CN2CCN(c3ccc(C(=O)NS(=O)(=O)c4ccc(NC5CCN(C6CCOCC6)CC5)c([N+](=O)[O-])c4)c(Oc4cnc5[nH]ccc5c4)c3)CC2)=C(c2ccc(Cl)cc2)C1` [Example 3, 4-(4-{[2-(4-chlorophenyl)-4,4-dimethylcyclohex-1-en-1-yl]methyl}piperazin-1-yl)-N-({3-nitro-4-[(1-tetrahydro-2H-pyran-4-ylpiperidin-4-yl)amino]phenyl}sulfonyl)-2-(1H-pyrrolo[2,3-b]pyridin-5-yloxy)benzamide]: 14.2 nM.

Staying with this assay, now noted: Homo sapiens, RS4-11, Table 5, direct comparison Z=N with corresponding analogs Z=C; read-out: RS4; 11 EC50.
For the compound `CC1(C)CCC(CN2CCN(c3ccc(C(=O)NS(=O)(=O)c4ccc(NC5CCN(C6CCOCC6)CC5)c([N+](=O)[O-])c4)c(Oc4cnc5[nH]ccc5c4)c3)CC2)=C(c2ccc(Cl)cc2)C1` [Example 3, 4-(4-{[2-(4-chlorophenyl)-4,4-dimethylcyclohex-1-en-1-yl]methyl}piperazin-1-yl)-N-({3-nitro-4-[(1-tetrahydro-2H-pyran-4-ylpiperidin-4-yl)amino]phenyl}sulfonyl)-2-(1H-pyrrolo[2,3-b]pyridin-5-yloxy)benzamide], the EC50 worked out at 14.2 nM.
